Data published in patent publication US20220072101A1, “HARNESSING INFLAMMATION TO TREAT NEURODEVELOPMENTAL DISORDERS” (President and Fellows of Harvard College, priority 2019, published 2022).
Entries after “also recorded” stand apart in the source; their conditions may differ.

How the values were obtained:
[1] = system: c-Fos; test: Quantification of c-Fos+ cells in the brain after LPS administration; assay type: in vivo, mouse
Description: Animals were transcardially perfused with cold PFA (4% in PBS). Brains were kept in PFA overnight at 4° C. prior to vibratome sectioning (Leica VT1000s®). Brains were cut at 50 μm thickness for cFos quantification. Brains were cut at 100 μm thickness for all other experiments.
Prior to antibody labeling, sections were incubated in blocking solution (0.4% Triton X-100 and 2% goat serum in PBS) for 30 min. Sections were then incubated in blocking solution containing primary antibodies overnight at room temperature. Primary antibodies used were chicken anti-GFP (1:1000, Ab5450, Abcam®), rabbit anti-cFos (1:500, ABE457, Millipore®), rabbit anti-DsRed (1:1000, 632496, Clontech®). Sections were washed in wash buffer (0.4% Triton X-100 in PBS) three times before secondary antibody labeling. Sections were incubated in blocking solution containing secondary antibodies and DAPI (1:5000, D1306, Thermofisher™) for three hours at room temperature. Images of stained slices were acquired using a confocal microscope (LSM710, Carl Zeiss®) with a 10× or 20× objective lens.
Adult male mice were sacrificed five hours after LPS injection. c-Fos+ cells were quantified using the Cell Counter plugin in Fiji^25. All cells were counted within a single coronal section of each respective brain region as defined by the Paxinos and Franklin Mouse Atlas^26. Regions quantified include mPFC (Including only PrL and IL) (AP+1.98), S1DZ (AP-0.48), S1BF (AP-0.48), M1 (AP-0.46), M2 (AP-0.46), AuD (AP-1.94), CeA (AP-1.94), and V1 (AP-3.64). Somatosensory cortex dysgranular zone (S1DZ), somatosensory cortex barrel field (S1BF), secondary motor cortex (M2), primary motor cortex (M1), secondary auditory cortex dorsal part (AuD), central amygdala (CeA), medial prefrontal cortex (mPFC), prelimbic cortex (PrL), infralimbic cortex (IL), primary visual cortex (V1).
Adult male mice were sacrificed five hours after LPS injection. c-Fos^+ cells were quantified using the Cell Counter plugin in Fiji^28. All cells were counted within a single coronal section of each respective brain region as defined by the Paxinos and Franklin Mouse Atlas^29. Regions quantified include mPFC (PrL and IL) (AP+1.98), S1DZ (AP-0.46), S1BF (AP-0.46), M1 (AP-0.46), M2 (AP-0.46), AuD (AP-1.94), CeA (AP-1.94), and V1 (AP-3.64). Medial prefrontal cortex (mPFC), prelimbic cortex (PrL), infralimbic cortex (IL), primary somatosensory cortex dysgranular zone (S1DZ), primary somatosensory cortex barrel field (S1BF), primary motor cortex (M1), secondary motor cortex (M2), secondary auditory cortex dorsal part (AuD), central amygdala (CeA), primary visual cortex (V1). […]

[2] = system: MIA offspring; test: Three-chamber social approach assay in PBS and MIA offspring; assay type: in vivo, mouse
Description: Adult male mice were assayed for sociability using a three-chamber social approach assay. The arena was constructed of white acrylic (50 cm×35 cm×30 cm). Wire cups (Spectrum Diversified®) were placed in the back left and right corner of the arena beneath water-filled 1 L bottles (Nalgene®). On Day 0, mice were habituated to the arena for 10 min. Immediately following habituation, mice were singly housed. On Day 1 (Pre), mice were placed in the center of the arena and allowed to freely explore. Following 10 min, mice were confined to the center of the arena. An inanimate object (rubber stopper) or a male conspecific were placed beneath the wire cups. Placement of the inanimate object and social target were alternated. Mice were then allowed to freely explore the arena for 10 min. Interaction time was defined as time spent in the areas circumscribing the wire cups (<2 cm). Sociability was defined as interaction time with the social target divided by total interaction time and expressed as a percentage. For experiments involving LPS injections, mice were injected with LPS ([…], i.p., L2630, Sigma) on Day 2 (Test), four hours prior to testing. […]
Adult male mice were implanted with cannula into S1DZ and allowed to recover for >2 weeks prior to behavioral experiments. On Day 1 (Pre) mice were assayed for sociability. On Day 2 (Test), mice were anesthetized briefly using isoflurane and either vehicle or IL-17a (50 ng/side in 1 μl at a rate of 180 nl/min, 7956-ML/CF, R&D®) was administered bilaterally into S1DZ through 250 μm-projecting injector tips (PlasticsOne®). Four hours after vehicle or IL-17a administration, mice were assayed for sociability. Cannula placements were verified using histology.
Adult male mice were assayed for sociability using a three-chamber social approach assay. The arena was constructed of white acrylic (50 cm×35 cm×30 cm). Wire cups (Spectrum Diversified®) were placed in the back left and right corner of the arena beneath water-filled 1 L bottles (Nalgene®). On day 0, mice were habituated to the arena for 10 min. Immediately following habituation, mice were singly housed. On day 1 (Pre), mice were placed in the center of the arena and allowed to freely explore. Following 10 min, mice were confined to the center of the arena. An inanimate object (rubber stopper) or a male conspecific were placed beneath the wire cups. Placement of the inanimate object and social target were alternated. Mice were then allowed to freely explore the arena for 10 min. Interaction time was defined as time spent in the areas circumscribing the wire cups (<2 cm). Sociability was defined as interaction time with the social target divided by total interaction time and expressed as a percentage. For experiments involving LPS injections, mice were injected with either saline (Veh) or LPS ([…], i.p., L2630, Sigma) on day 2 (Test), four hours prior to testing. For the experiment assaying sociability 72 hrs following LPS injection, mice used for 4 hr LPS sociability experiments were tested for sociability again at 72 hrs.
Adult male Vgat-Cre MIA offspring were bilaterally injected with virus encoding the inhibitory DREADD receptor fused to mCherry into the vLPO. Following >3 weeks of recovery, mice were assayed on the three-chamber social approach assay outlined above. Baseline sociability was assayed on day 1 (Pre). On day 2 and day 3, mice were injected with either Saline (Veh) or CNO (1.5 mg/kg i.p., BML-NS105, Enzo Life Sciences®), two hours prior to initiation of behavior. Injection order was counterbalanced. Following behavioral experiments, post-mortem histology was used to confirm mCherry expression within the vLPO. For experiments assaying the effect of CNO and LPS injection in Vgat-Cre PBS and MIA offspring that have not undergone surgery, baseline sociability was assessed on day 1. On day 2 and 3 mice received counterbalanced injections of CNO or vehicle. On day 4, mice were injected with LPS. […]

Substance: lipopolysaccharide [LPS]
- number of c-Fos+ S1DZ neurons ([1]; LPS-treated MIA offspring, five hours after LPS): indistinguishable from that of PBS offspring; also recorded: reduced to levels of control offspring
- number of c-Fos-expressing neurons in the central amygdala (CeA) ([1]; MIA offspring, LPS): increased
- number of c-Fos-expressing neurons in other cortical regions ([1]; MIA offspring, LPS, S1BF, M1, M2, mPFC, AuD, V1): remained unchanged; also recorded: does not have a distinguishable effect on c-Fos expression in other cortical regions analyzed
- number of S1DZ c-Fos+ neurons ([1]; monogenic mutant mice (Cntnap2, Fmr1, Shank3), LPS): failed to reduce the number of S1DZ c-Fos^+ neurons in monogenic mutant mice
- sociability deficits ([2]; IFNγ or IL-17a knockout (KO) MIA offspring, LPS i.p., 4 hours): failed to rescue the sociability deficits in IFNγ or IL-17a knockout (KO) MIA offspring
- LPS-induced rescue of sociability by age ([2]; MIA mice, young (2-5 months) and aged (9-12 month), 4 hr after LPS): observed in both young (2-5 months) and aged (9-12 month) mice; also recorded: effective in aged mice
- sociability (deficit in sociability) ([2]; MIA offspring (WT), LPS 50 μg/kg i.p., 4 hours after injection): temporarily rescued; also recorded: robustly rescued their characteristic deficits in sociability; also recorded: restored sociability; also recorded: rescues sociability deficits in MIA offspring
- sociability ([2]; MIA offspring deficient for IL-17Ra in the S1DZ (IL-17Ra fl/fl; EGFP:nCre), LPS i.p., 4 hours): failed to restore sociability
- sociability rescue 72 hours following LPS ([2]; MIA offspring, 72 hours after LPS treatment): behavioral rescue was absent 72 hours following LPS treatment; also recorded: absent 72 hours following the treatment; also recorded: transient
- baseline sociability ([2]; PBS (control) offspring, LPS i.p., 4 hours after injection): Neither vehicle nor LPS injection affected baseline sociability in PBS offspring; also recorded: did not affect baseline sociability in control offspring
- sociability in MIA Vgat-Cre mice ([2]; Vgat-Cre MIA offspring without surgery, CNO 1.5 mg/kg i.p. or LPS): showed an increase in sociability upon LPS treatment
